These results are taken from patent US20230357248A1, “PYRROLOPYRIMIDINE COMPOUND AS BTK INHIBITOR AND USE THEREOF” (MEDSHINE DISCOVERY INC., priority 2019, published 2023).

Each structure is given as a SMILES string. Marks after values point to notes of the source that are not given here.

This series concerns rat plasma protein. The series is described as follows: In vivo plasma protein binding (PPB) assay in rat. It is filed as in vitro ADME. The conditions noted are these: rat in vivo plasma samples; dialysis 4 h 37° C.; average of 3 or 4 results. On the procedure: 1.1 Preparation of Dialysis Membrane and Matrix
On the day of the assay, frozen plasma was thawed in running cold tap water. After the plasma was completely thawed, the plasma was centrifuged at 3220×g for 5 min, and suspensions and sediments in the plasma were removed.
A double-layer dialysis membrane was soaked in ultrapure water for about 1 h, and then taken out. The double-layer dialysis membrane was divided into two parts, and then soaked in ethanol-water (20:80, v:v) solution for 20 min or placed at 2-8° C. with a validity period of 1 month. Before the start of the assay, the dialysis membrane was rinsed twice with ultrapure water and soaked in ultrapure water for another 20 min for use.
1.2 The Mixing Steps of Compound Sample and the Dilution Process of Control Compound
1.2.1 The Mixing Steps of Compound Sample
An appropriate amount of original samples were transferred to a collection tube of mixed samples, and the samples in the collection tube of mixed samples were mixed thoroughly.
1.2.2 The Dilution Process of the Control Compound
The control compound was dissolved in dimethyl sulfoxide to obtain a 10 mM stock solution. A working solution of 400 μM was obtained by dilution with dimethyl sulfoxide. Preparation process of plasma sample: 995 μL of blank plasma was weighed, and 5 μL of warfarin working solution was added. […]

On to `CO[C@@H]1C[C@@H](CO)OC[C@@H]1Nc1ncnc2[nH]cc(C(=O)c3ccc(Oc4ccccc4)cc3Cl)c12` [Compound 4], for which the “Unbound PPB” value stood at 0.2% ^a.
